Results reported in ChEMBL document CHEMBL1201862, “PubChem BioAssay data set” (2004).
Structures can show the parent of a compound that is named as a salt.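 Test compounds were applied to cells in 96-well plates for 48 hours at 5 doses. GI50 = concentration required for 50% inhibition of growth.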 The source made the active and inactive calls. No stated cut-off is given here; in the data, active = GI50 up to about 1.1 µM and inactive = higher.

Assays:
Assay in all cases: NCI anticancer screen, dose series, 48 h
[1] = system: SK-MEL-28
[2] = system: NCI-H522
[3] = system: SN12C
[4] = system: UO-31
[5] = system: HOP-62
[6] = system: IGROV-1
[7] = system: K562
[8] = system: HCT-15
[9] = system: HOP-92
[10] = system: SR
[11] = system: OVCAR-4
[12] = system: T47D
[13] = system: SNB-19
[14] = system: HT-29
[15] = system: SF-295
[16] = system: EKVX
[17] = system: MCF7
[18] = system: OVCAR-3
[19] = system: ACHN
[20] = system: OVCAR-8

| SMILES | GI50 [1] | GI50 [2] | GI50 [3] | GI50 [4] | GI50 [5] | GI50 [6] | GI50 [7] | GI50 [8] | GI50 [9] | GI50 [10] | GI50 [11] | GI50 [12] | GI50 [13] | GI50 [14] | GI50 [15] | GI50 [16] | GI50 [17] | GI50 [18] | GI50 [19] | GI50 [20] |
| --- | --- | --- | --- | --- | --- | --- | --- | --- | --- | --- | --- | --- | --- | --- | --- | --- | --- | --- | --- | --- |
| O=C(/C=C/c1ccc(-c2ccccc2)cc1)NCc1ccc(C(=O)NCCc2c[nH]c3ccccc23)cc1 | 39.7 µM (inactive) | 21.3 µM (inactive) | 5.08 µM (inactive) | 26.7 µM (inactive) | 9.14 µM (inactive) | 11.4 µM (inactive) | 21.5 µM (inactive) | > 100 µM | 20.1 µM (inactive) | 21 µM (inactive) | 14.8 µM (inactive) | 22 µM (inactive) | 21.7 µM (inactive) | 11.5 µM (inactive) | 11.1 µM (inactive) | 34.2 µM (inactive) | 89.9 µM (inactive) | 28.9 µM (inactive) | 35.8 µM (inactive) | 13.6 µM (inactive) |
| CC(=O)C1(Cc2cccc3ccccc23)S(=O)(=O)OCCOS1(=O)=O | 19.3 µM (inactive) | 21.6 µM (inactive) | 11.9 µM (inactive) | 15.8 µM (inactive) | 20.9 µM (inactive) | 4.69 µM (inactive) | 28.4 µM (inactive) | 19.2 µM | 15.5 µM (inactive) | 18.3 µM (inactive) | 21.7 µM (inactive) | 18.5 µM (inactive) | 18.4 µM (inactive) | 17.5 µM (inactive) | 0.843 µM (active) | 18.5 µM (inactive) | 20.8 µM (inactive) | 19.7 µM (inactive) | 18.7 µM (inactive) | 19.5 µM (inactive) |
| COc1c2c(nc3ccccc13)-c1cc(C(CC(=O)OC(C)(C)C)C(=O)OC(C)C)c(CO)c(=O)n1C2 (stereo not given) | > 73.8 µM (inactive) | 37.6 µM (inactive) | 45.8 µM (inactive) | > 36.7 µM (inactive) | 24.9 µM (inactive) | 47.4 µM (inactive) | 33.6 µM (inactive) | > 78.2 µM | 40 µM (inactive) | 5.62 µM (inactive) | > 70.5 µM (inactive) | 22.1 µM (inactive) | 53.8 µM (inactive) | 58.5 µM (inactive) | 29.2 µM (inactive) | > 100 µM (inactive) | 6.85 µM (inactive) | > 100 µM (inactive) | 21.9 µM (inactive) | 71.1 µM (inactive) |
| C=C(C[C@@H](O)[C@H](C)NC(=O)OCc1ccccc1)C(=O)OC(C)(C)C | > 100 µM (inactive) | 38.6 µM (inactive) | > 100 µM (inactive) | > 100 µM (inactive) | > 100 µM (inactive) | > 100 µM (inactive) | 35.9 µM (inactive) | > 100 µM | > 100 µM (inactive) | 29.6 µM (inactive) | 47.5 µM (inactive) | 13.1 µM (inactive) | > 100 µM (inactive) | > 100 µM (inactive) | 89.1 µM (inactive) | 76.6 µM (inactive) | 61.7 µM (inactive) | 78.2 µM (inactive) | > 100 µM (inactive) | 66.8 µM (inactive) |
| COC(=O)C[C@H](COCc1ccccc1)NC(=O)C[C@H](COCc1ccccc1)NC(=O)C[C@H](COCc1ccccc1)NC(=O)OC(C)(C)C | 73.1 µM (inactive) | 78 µM (inactive) | 41.4 µM (inactive) | > 100 µM (inactive) | 16.9 µM (inactive) | > 100 µM (inactive) | > 100 µM (inactive) | > 100 µM | 24.8 µM (inactive) | 35.3 µM (inactive) | 3.97 µM (inactive) | 24.7 µM (inactive) | > 100 µM (inactive) | 72.8 µM (inactive) | 88.9 µM (inactive) | 25.8 µM (inactive) | 11.8 µM (inactive) | > 100 µM (inactive) | 80.9 µM (inactive) | 23.8 µM (inactive) |
| Cc1cc(NS(=O)(=O)c2ccc(Nc3c4ccccc4nc4ccc(C(=O)Nc5ccc(S(N)(=O)=O)cc5)cc34)cc2)no1 | > 100 µM (inactive) | > 100 µM (inactive) | > 100 µM (inactive) | > 100 µM (inactive) | > 100 µM (inactive) | > 100 µM (inactive) | > 100 µM (inactive) | > 100 µM | > 100 µM (inactive) | > 100 µM (inactive) | > 100 µM (inactive) | 84.3 µM (inactive) | > 100 µM (inactive) | > 100 µM (inactive) | > 100 µM (inactive) | > 100 µM (inactive) | > 100 µM (inactive) | > 100 µM (inactive) | > 100 µM (inactive) | > 100 µM (inactive) |
| COc1cc(/C=C2\C[C@H]3[C@@H]4CC=C5C[C@@H](OC(C)=O)CC[C@]5(C)[C@H]4CC[C@]3(C)\C2=N\O)cc(OC)c1OC | 5.58 µM (inactive) | 4.85 µM (inactive) | 6.37 µM (inactive) | 3.86 µM (inactive) | 13.1 µM (inactive) | 10 µM (inactive) | 4.27 µM (inactive) | 4.42 µM | 2.59 µM (inactive) | 3.58 µM (inactive) | 3.37 µM (inactive) | 1.64 µM (inactive) | 29.9 µM (inactive) | 5.15 µM (inactive) | 3.21 µM (inactive) | 4.71 µM (inactive) | 4.2 µM (inactive) | 6.27 µM (inactive) | 3.75 µM (inactive) | 4.29 µM (inactive) |
| CCCCCOc1ccc(NC2=C(Cl)C(=O)c3c(O)ccc(O)c3C2=O)cc1 | 2.84 µM (inactive) | 2.55 µM (inactive) | 2.96 µM (inactive) | 5.26 µM (inactive) | 5.85 µM (inactive) | > 10 µM (inactive) | 3.27 µM (inactive) | 2.02 µM | 6.85 µM (inactive) | 2.36 µM (inactive) | 5.12 µM (inactive) | 2.76 µM (inactive) | 7.87 µM (inactive) | 4.75 µM (inactive) | > 10 µM (inactive) | > 10 µM (inactive) | 1.33 µM (inactive) | 4.2 µM (inactive) | > 10 µM (inactive) | 2.99 µM (inactive) |
| CC(C)=CCc1c2c(c(O)c3c(=O)c4c(oc13)-c1ccc(O)cc1OC4C=C(C)C)C=CC(C)(C)O2 (stereo not given) | 14.6 µM (inactive) | 12.4 µM (inactive) | 6.35 µM (inactive) | 18.3 µM (inactive) | 14.2 µM (inactive) | 14 µM (inactive) | 8.65 µM (inactive) | 7.5 µM | 7.11 µM (inactive) | 5.33 µM (inactive) | 11.6 µM (inactive) | 8.79 µM (inactive) | 15.3 µM (inactive) | 13 µM (inactive) | 14.6 µM (inactive) | 14.9 µM (inactive) | 13.5 µM (inactive) | 12.3 µM (inactive) | 11.8 µM (inactive) | 13.3 µM (inactive) |
| Nc1nc(Cl)c(N)c(NC23CC4CC(CC(C4)C2)C3)n1 | 1.84 µM (inactive) | 1.92 µM (inactive) | 1.82 µM (inactive) | 1.69 µM (inactive) | 1.87 µM (inactive) | 3.85 µM (inactive) | 2.08 µM (inactive) | 1.73 µM | 3.89 µM (inactive) | 2.56 µM (inactive) | 1.85 µM (inactive) | 1.34 µM (inactive) | 1.63 µM (inactive) | 1.79 µM (inactive) | 2.78 µM (inactive) | 2.18 µM (inactive) | 1.68 µM (inactive) | 1.64 µM (inactive) | 1.78 µM (inactive) | 2.55 µM (inactive) |
| O=c1[nH]c(=O)n([C@H]2CCCO2)cc1F | 830 µM (inactive) | 769 µM (inactive) | 838 µM (inactive) | 869 µM (inactive) | 547 µM (inactive) | 975 µM (inactive) | 968 µM (inactive) | 678 µM | > 3120 µM (inactive) | 337 µM (inactive) | 2610 µM (inactive) | > 465 µM (inactive) | 3920 µM (inactive) | 649 µM (inactive) | 918 µM (inactive) | 393 µM (inactive) | 467 µM (inactive) | 684 µM (inactive) | 977 µM (inactive) | 655 µM (inactive) |
| COc1cc(OCCN(C)C)c2[nH]c(C(=O)N3CC(CCl)c4ccc(N)cc43)cc2c1 (stereo not given) | 0.0628 µM (active) | 0.0139 µM (active) | 0.0597 µM (active) | 0.0195 µM (active) | 0.0164 µM (active) | 0.0148 µM (active) | 0.0239 µM (active) | 0.0418 µM | 0.0596 µM (active) | < 0.01 µM (active) | 0.029 µM (active) | 0.0312 µM (active) | 0.114 µM (active) | < 0.0246 µM (active) | 0.0369 µM (active) | 0.108 µM (active) | 0.0139 µM (active) | 0.0282 µM (active) | 0.0178 µM (active) | 0.0432 µM (active) |
| Nc1ncn([C@H]2C[C@H](O)[C@@H](CO)O2)c(=O)n1 [DECITABINE] | 97.3 µM (inactive) | 36.7 µM (inactive) | 83.8 µM (inactive) | 298 µM (inactive) | 111 µM (inactive) | 102 µM (inactive) | 18.7 µM (inactive) | 2.77 µM | 175 µM (inactive) | 2.67 µM (inactive) | 104 µM (inactive) | 10.4 µM (inactive) | 138 µM (inactive) | 51.3 µM (inactive) | 102 µM (inactive) | 104 µM (inactive) | 74.8 µM (inactive) | 76.6 µM (inactive) | 21.5 µM (inactive) | 16.9 µM (inactive) |
| CNNCc1ccc(C(=O)NC(C)C)cc1 [PROCARBAZINE HYDROCHLORIDE] | > 500 µM (inactive) | > 500 µM (inactive) | > 500 µM (inactive) | > 500 µM (inactive) | 383 µM (inactive) | > 404 µM (inactive) | 410 µM (inactive) | > 415 µM | 369 µM (inactive) | > 375 µM (inactive) | > 500 µM (inactive) | > 500 µM (inactive) | > 500 µM (inactive) | > 474 µM (inactive) | > 500 µM (inactive) | > 500 µM (inactive) | > 486 µM (inactive) | > 472 µM (inactive) | > 500 µM (inactive) | > 500 µM (inactive) |
